The values that follow come from patent publication US20180177749A1, “USE OF CYP EXPRESSION TO DIRECT THERAPEUTIC INTERVENTION IN CANCER” (REGENTS OF THE UNIVERSITY OF MINNESOTA, priority 2016, published 2018).

Where two headings read alike, the source gives them in different places.

One series concerns T47D. In words: MTT cell proliferation assay, T47D. Format: cell-based, human. The procedure:
The human breast cancer cell lines MCF-7, T47D, and MDA-MB-231 described above were grown in Minimal Essential Medium (MCF-7), RPMI 1640 with insulin (0.2 U/mL) and 1 mM Na pyruvate (T47D) or DMEM containing 10% fetal bovine serum (FBS) (MDA-MB-231), which was defined as complete medium (CM). Cells were grown at 37° C. in a 5% CO2 incubator. […] MTT was then added (5 mg/ml), and after 2 h of incubation, the plates were centrifuged. The supernatant was removed; DMSO was added, and the absorbance was read at 540 nm with a BioTek 96-well plate reader.
(Tetrazolium assays rely on reduction of a dye to a coloured formazan, in cell work by metabolically active cells.)

The test system of the next series is MDA-MB-231 cells. Kind of series: JC-1 mitochondrial membrane potential staining, MDA-MB-231. In kind it is cell-based, human. As to conditions: HBB 20 μM 4 hours, (±)-14,15-EET 1 μM. The procedure:
Cells were grown in chamber slides at 37° C. with 5% CO2 and treated with DMSO or HBB for 4 hours before JC-1 dye was added for the MCF-7 or MDA-MB-231 cell line. […] Images of red fluorescence (590 nm) and green fluorescence (530 nm) were acquired using an Olympus 1X70 microscope fitted with an Olympus DP70 digital camera (Olympus, Tokyo, Japan).

In another series the target is T1, CYP2C8 (Homo sapiens, UniProt P10632).
T1 sequence (P10632 1-490): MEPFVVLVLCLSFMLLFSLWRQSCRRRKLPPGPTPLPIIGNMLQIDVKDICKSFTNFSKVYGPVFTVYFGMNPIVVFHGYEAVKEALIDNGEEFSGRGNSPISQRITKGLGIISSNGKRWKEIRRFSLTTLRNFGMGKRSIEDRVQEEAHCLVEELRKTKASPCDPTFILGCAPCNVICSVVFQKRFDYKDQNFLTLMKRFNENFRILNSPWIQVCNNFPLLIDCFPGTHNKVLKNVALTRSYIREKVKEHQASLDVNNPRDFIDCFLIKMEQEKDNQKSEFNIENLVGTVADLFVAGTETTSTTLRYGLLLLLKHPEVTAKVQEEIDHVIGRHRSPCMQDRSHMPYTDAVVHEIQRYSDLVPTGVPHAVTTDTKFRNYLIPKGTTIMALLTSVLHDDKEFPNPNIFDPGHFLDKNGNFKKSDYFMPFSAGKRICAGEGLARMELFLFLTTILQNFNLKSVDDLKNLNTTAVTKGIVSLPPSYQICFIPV
In words: Recombinant microsomal CYP-mediated EET biosynthesis (CYP2C8 Supersomes). Format: biochemical. More on the design: host or cells: insect cells (microsomes). How it is done:
Samples were submitted to liquid chromatography-electrospray ionization/multiple reaction monitoring/mass spectrometry (LC-ESI/MRM/MS) analysis in a Thermo Electron Quantum Discovery Max triple quadrupole mass spectrometer (Thermo Finnigan, San Jose, Calif.) coupled with an Agilent 1100 HPLC (Santa Clara, Calif.), using argon as the collision gas. Negative ion monitoring was performed at the following diagnostic product ions: 319 m/z→155 m/z for 8,9-EET; 319 m/z→179 m/z for 11,12-EET; 319 m/z→219 m/z for 14,15-EET; 339 m/z→163 m/z for 8,9-[13C20]EET; 339 m/z→233 m/z for 11,12-[13C20]EET; and 339 m/z→259 m/z for 14,15-[^13C20]EET. Base-line resolution of EET regioisomers was achieved on a Phenomenex Luna C18 (2) reverse phase capillary column (250×0.5 mm, 5-μm particles) using the following mobile phase combinations: isocratic 5% B for 5 min, gradient 5-70% B for 5 min, hold at 70% for 30 min and then 95% for 10 min; A: 0.01% acetic acid in water, B: 0.01% acetic acid in acetonitrile; […] flow rate. A standard curve was obtained by linear regression of the peak area ratio of authentic EET regioisomers against internal standards. The amount of EETs in samples was calculated according to the standard curve. The (±)-5,6-EET regioisomer was not measured because it undergoes rapid internal degradation.
CYP3A4 or 2C8 Supersomes™ (BD Biosciences) were incubated at 37° C. for 30 min in the presence of AA (5 μM) in […] Tris-HCl, pH 7.4, containing 1 mm EDTA and 1 mm NADPH. Reactions were terminated by adding methylene chloride (0.5 ml). Samples were centrifuged at 3,000 rpm for 10 min and 150 μl of the organic phases were evaporated under nitrogen. […] Reaction extracts were chromatographed under the conditions described above, and ions of 319 m/z, corresponding to AA monooxygenation products, were selectively monitored in negative mode. Concentrations of EETs generated by CYP Supersomes™ were calculated by linear regression against standard curve generated with EET standards.

Take `CCCCCCNC(=N)NC(=N)NCc1ccccc1` [HBB, N1-hexyl-N5-benzyl-biguanide]: the “growth inhibition abrogated by concurrent (±)-14,15-EET” value with T47D ((±)-14,15-EET 1 μM, 24 hours) was “abrogated most of the inhibition”. The IC50 (usually the concentration that gives 50% inhibition) in the series on T47D (Homo sapiens, ER+[PR+]) is 25.1 µM; at CYP2C8 (read-out: IC50, CYP2C8 synthesis of (±)-8,9-EET) it was 65 µM; at CYP2C8 (read-out: IC50, CYP2C8 synthesis of (±)-11,12-EET) it was 50 µM; on CYP2C8 (read-out: IC50, CYP2C8 synthesis of (±)-14,15-EET), 45 µM. Further, in the series with MDA-MB-231 cells, the “mitochondrial membrane potential (ΔΨm), JC-1” value is recorded as “caused mitochondrial depolarization”.
